The record followed here is ChEMBL document CHEMBL3045607, “Design and synthesis of novel N-substituted-3-chloro-2-azetidinone derivatives as potential anticonvulsant agents” (Med Chem Res, 2011).

Data set [1] has as its system Mus musculus. In words: Anticonvulsant activity in Mus musculus (mouse) assessed as protection against subcutaneous pentylene tetrazole-induced seizure at 300 mg/kg, ip after 4 hr. Details: dose 300 mg/kg. It is filed as functional, organism-based.
Data set [2] relates to Mus musculus. As to the kind of experiment: Anticonvulsant activity in Mus musculus (mouse) assessed as protection against subcutaneous pentylene tetrazole-induced seizure at 300 mg/kg, ip after 0.5 hr. It is filed as functional, organism-based. Details: dose 300 mg/kg.
Data set [3] deals with Mus musculus. As to the kind of experiment: Anticonvulsant activity in ip dosed Mus musculus (mouse) assessed as protection against maximal electroshock-induced seizure after 4 hr. The conditions noted are these: read-out: MED. It is filed as functional. (The maximal electroshock test induces tonic seizures with an electrical stimulus.)
Data set [4] relates to Mus musculus. In words: Anticonvulsant activity in Mus musculus (mouse) assessed as protection against maximal electroshock-induced seizure at 300 mg/kg, ip after 0.5 hr. It is filed as functional, organism-based. Details: dose 300 mg/kg.
Data set [5] deals with Mus musculus. As to the kind of experiment: Neurotoxicity in Mus musculus (mouse) assessed as minimal motor impairment at 300 mg/kg, ip after 4 hr by rotarod test. It is filed as toxicity, organism-based. The conditions noted are these: in vivo. Details: dose 300 mg/kg, route intraperitoneal. In general terms: Falling from the rotarod earlier than controls is read as motor impairment.

The test system of data set [6] is Mus musculus. In words: Neurotoxicity in Mus musculus (mouse) assessed as minimal motor impairment at 300 mg/kg, ip after 0.5 hr by rotarod test. It is filed as toxicity, organism-based. Details: dose 300 mg/kg, route intraperitoneal. The conditions noted are these: in vivo.
Data set [7] deals with Mus musculus. In words: Anticonvulsant activity in ip dosed Mus musculus (mouse) assessed as protection against subcutaneous pentylene tetrazole-induced seizure after 4 hr. It is filed as functional. The conditions noted are these: read-out: MED.
For data set [8], the system named is Mus musculus. In words: Neurotoxicity in ip dosed Mus musculus (mouse) assessed as minimal motor impairment after 4 hr by rotarod test. The conditions noted are these: in vivo. It counts as toxicity, organism-based.
Data set [9] has as its system Mus musculus. In words: Anticonvulsant activity in ip dosed Mus musculus (mouse) assessed as protection against subcutaneous pentylene tetrazole-induced seizure after 0.5 hr. It counts as functional. The conditions noted are these: read-out: MED.
Data set [10] relates to Mus musculus. As to the kind of experiment: Anticonvulsant activity in ip dosed Mus musculus (mouse) assessed as protection against maximal electroshock-induced seizure after 0.5 hr. The conditions noted are these: read-out: MED. It counts as functional.
Data set [11] has as its system Mus musculus. As to the kind of experiment: Neurotoxicity in Mus musculus (mouse) assessed as increase in immobility time at 30 mg/kg, ip administered 30 min before test measured for 5 min by forced swimming test. It is filed as toxicity, organism-based. Details: dose 30 mg/kg, route intraperitoneal. The conditions noted are these: in vivo.
Data set [12] concerns Mus musculus. As to the kind of experiment: Neurotoxicity in ip dosed Mus musculus (mouse) assessed as minimal motor impairment after 0.5 hr by rotarod test. The conditions noted are these: in vivo. It is filed as toxicity, organism-based.

Active and inactive are the calls of the source. The rule behind the calls is not given here.

For the compound `COc1ccccc1C1C(Cl)C(=O)N1NC(=O)c1ccncc1` (stereo not given), the result in the data set on Mus musculus [1], with Mus musculus [2] and in the data set with Mus musculus [4] was inactive. In the data set on Mus musculus [3], the minimal effective dose was 300 mg/kg. Besides, the Activity entry in the data set with Mus musculus [5] and with Mus musculus [6] was “Non-toxic” throughout.
For the compound `O=C(NN1C(=O)C(Cl)C1c1ccc(O)cc1)c1ccncc1` (stereo not given), the outcome with Mus musculus [2] and with Mus musculus [4] was inactive. In addition, the results for the minimal effective dose in the data set with Mus musculus [7] and in the data set on Mus musculus [3] were 300 mg/kg and 100 mg/kg, respectively. For the same compound, in the data set with Mus musculus [6], the Activity result is recorded as “Non-toxic”. Moreover, in the data set on Mus musculus [8], the MTC was 300 mg/kg.
Take `O=C(NN1C(=O)C(Cl)C1c1ccccc1Cl)c1ccncc1` (stereo not given): the result in the data set on Mus musculus [1], with Mus musculus [2] and in the data set with Mus musculus [4] was inactive. Also, the minimal effective dose with Mus musculus [3] stood at 300 mg/kg. The Activity entry in the data set with Mus musculus [5] and with Mus musculus [6] was “Non-toxic” each time.
As for `NC(=O)N1c2ccccc2C=Cc2ccccc21` [CARBAMAZEPINE], the minimal effective dose was 100 mg/kg in the data set with Mus musculus [9], 300 mg/kg in the data set on Mus musculus [7], 100 mg/kg in the data set with Mus musculus [3] and 30 mg/kg with Mus musculus [10]. For the same compound, the Activity is recorded as 30.66% in the data set on Mus musculus [11] and “Non-toxic” in the data set with Mus musculus [6]. The MTC with Mus musculus [8] was 30 mg/kg.
For `COc1ccc(C2C(Cl)C(=O)N2NC(=O)c2ccncc2)cc1OC` (stereo not given), the minimal effective dose with Mus musculus [9], with Mus musculus [7], with Mus musculus [3] and in the data set on Mus musculus [10] was 100 mg/kg in each case. The Activity with Mus musculus [11] is 33.83%; with Mus musculus [5], “Non-toxic”; in the data set with Mus musculus [6], “Non-toxic”.
In the case of `O=C(NN1C(=O)C(Cl)C1c1ccc(Cl)cc1)c1ccncc1` (stereo not given), the minimal effective dose with Mus musculus [9] was 100 mg/kg; in the data set with Mus musculus [7], 100 mg/kg; in the data set with Mus musculus [3], 100 mg/kg; with Mus musculus [10] it was 300 mg/kg. In addition, the Activity is 54.54% with Mus musculus [11], “Non-toxic” in the data set with Mus musculus [5] and “Non-toxic” in the data set on Mus musculus [6].
For the compound `CN(C)c1ccc(C2C(Cl)C(=O)N2NC(=O)c2ccncc2)cc1` (stereo not given), the outcome in the data set with Mus musculus [2] was inactive. In addition, the minimal effective dose in the data set on Mus musculus [7], in the data set on Mus musculus [3] and in the data set with Mus musculus [10] was 100 mg/kg each time. Besides, the values for the Activity in the data set with Mus musculus [11], in the data set on Mus musculus [5] and in the data set on Mus musculus [6] were 49.83%, “Non-toxic” and “Non-toxic”, respectively.
Turning to `COc1cc(C2C(Cl)C(=O)N2NC(=O)c2ccncc2)ccc1O` (stereo not given), the result in the data set on Mus musculus [2] was inactive. For the same compound, the minimal effective dose was determined as 300 mg/kg in the data set with Mus musculus [7], 100 mg/kg in the data set with Mus musculus [3] and 300 mg/kg in the data set on Mus musculus [10]. Besides, the Activity entry in the data set with Mus musculus [5] and in the data set on Mus musculus [6] was “Non-toxic” each time.
Regarding `O=C1NC(=O)C(c2ccccc2)(c2ccccc2)N1` [PHENYTOIN], the result with Mus musculus [1] and in the data set with Mus musculus [2] was inactive. The minimal effective dose in the data set on Mus musculus [3] and in the data set on Mus musculus [10] was 30 mg/kg in each case. Further, the MTC with Mus musculus [8] and in the data set with Mus musculus [12] was 100 mg/kg in each case.
For the compound `O=C(NN1C(=O)C(Cl)C1c1ccccc1[N+](=O)[O-])c1ccncc1` (stereo not given), the result in the data set with Mus musculus [2] and in the data set on Mus musculus [4] was inactive. Besides, the minimal effective dose with Mus musculus [7] and in the data set on Mus musculus [3] was 300 mg/kg each time. Further, the Activity entry in the data set on Mus musculus [5] and with Mus musculus [6] was “Non-toxic” each time.
`O=C(NN1C(=O)C(Cl)C1c1ccccc1)c1ccncc1` (stereo not given): the minimal effective dose in the data set with Mus musculus [9], in the data set with Mus musculus [7], in the data set on Mus musculus [3] and with Mus musculus [10] was 100 mg/kg throughout. In addition, the Activity in the data set with Mus musculus [11] was 11.5%; in the data set with Mus musculus [5], “Non-toxic”; with Mus musculus [6], “Non-toxic”.
With `O=C(NN1C(=O)C(Cl)C1c1ccccc1O)c1ccncc1` (stereo not given), the result with Mus musculus [1], with Mus musculus [2] and in the data set on Mus musculus [4] was inactive. Besides, the minimal effective dose in the data set with Mus musculus [3] worked out at 300 mg/kg. In addition, the Activity entry in the data set on Mus musculus [5] and in the data set with Mus musculus [6] was “Non-toxic” each time.
Turning to `Cc1ccc(C2C(Cl)C(=O)N2NC(=O)c2ccncc2)cc1` (stereo not given), the minimal effective dose in the data set on Mus musculus [9] came out at 100 mg/kg; with Mus musculus [7] it was 30 mg/kg; in the data set with Mus musculus [3], 30 mg/kg; with Mus musculus [10], 30 mg/kg. Moreover, the Activity is 21.66% in the data set on Mus musculus [11], “Non-toxic” with Mus musculus [5] and “Non-toxic” with Mus musculus [6].
Turning to `O=C(NN1C(=O)C(Cl)C1c1ccc([N+](=O)[O-])cc1)c1ccncc1` (stereo not given), the results for the minimal effective dose in the data set on Mus musculus [9], in the data set with Mus musculus [7] and with Mus musculus [3] were 300 mg/kg, 100 mg/kg and 100 mg/kg, respectively. Further, the result in the data set with Mus musculus [4] was inactive. The Activity result with Mus musculus [6] was “Non-toxic”. The MTC in the data set with Mus musculus [8] was found to be 300 mg/kg.
